Reference: US7342014B2, “Diamine derivatives” (Daiichi Pharmaceutical Co., Ltd., priority 2001, dated 2008)
Counter-ions that a name gives are not always drawn.

Row | melting point | Compound
1 | 228 to 233 °C (dec.) | CN1CCc2nc(C(=O)N[C@@H]3CN(CCF)CC[C@@H]3NC(=O)c3cc4cc(Cl)ccc4[nH]3)sc2C1 (relative stereo) (as salt: hydrochloride) [Example 168, N-[(3R*,4S*)-4-{[(5-Chloroindol-2-yl)carbonyl]amino}-1-(2-fluoroethyl)piperidin-3-yl]-5-methyl-4,5,6,7-tetrahydro-thiazolo[5,4-c]pyridine-2-carboxamide dihydrochloride]
2 | 241 to 244 °C | CN1CCc2nc(C(=O)N[C@@H]3CS(=O)(=O)CC[C@@H]3NC(=O)c3cc4cc(Cl)ccc4[nH]3)sc2C1 (relative stereo) (as salt: hydrochloride) [Example 178, N-((3R*,4R*)-4-{[(5-Chloroindol-2-yl)carbonyl]amino}-1,1-dioxohexahydro-1-thiopyran-3-yl)-5-methyl-4,5,6,7-tetrahydrothiazolo[5,4-c]pyridine-2-carboxamide hydrochloride]
3 | 243 to 245 °C | CN1CCc2nc(C(=O)N[C@@H]3CS(=O)(=O)CC[C@@H]3NC(=O)c3cc4cc(F)ccc4[nH]3)sc2C1 (relative stereo) (as salt: hydrochloride) [Example 179, N-((3R*,4R*)-4-{[(5-Fluoroindol-2-yl)carbonyl]amino}-1,1-dioxohexahydro-1-thiopyran-3-yl)-5-methyl-4,5,6,7-tetrahydrothiazolo[5,4-c]pyridine-2-carboxamide hydrochloride]

The remaining lines, values behind:

Row | Compound | melting point
4 | CN1CCc2nc(C(=O)N[C@@H]3CN(C(=O)C(F)(F)F)CC[C@@H]3NC(=O)c3cc4cc(Cl)ccc4[nH]3)sc2C1 (relative stereo) (as salt: hydrochloride) [Example 137, N-[(3R*,4S*)-4-{[(5-Chloroindol-2-yl)carbonyl]amino}-1-(2,2,2-trifluoroacetyl)piperidin-3-yl]-5-methyl-4,5,6,7-tetrahydrothiazolo[5,4-c]pyridine-2-carboxamide hydrochloride] | 262 to 267 °C (dec.)
5 | CN1CCc2nc(C(=O)N[C@@H]3CN(C(=O)C4CC4)CC[C@@H]3NC(=O)c3cc4cc(Cl)ccc4[nH]3)sc2C1 (relative stereo) (as salt: hydrochloride) [Example 138, N-[(3R*,4S*)-4-{[(5-Chloroindol-2-yl)carbonyl]amino}-1-(cyclopropylcarbonyl)piperidin-3-yl]-5-methyl-4,5,6,7-tetrahydrothiazolo[5,4-c]pyridine-2-carboxamide hydrochloride] | 280 to 286 °C (dec.)
6 | COCC(=O)N1CC[C@H](NC(=O)c2cc3cc(Cl)ccc3[nH]2)[C@H](NC(=O)c2nc3c(s2)CN(C)CC3)C1 (relative stereo) (as salt: hydrochloride) [Example 143, N-[(3R*,4S*)-4-{[(5-Chloroindol-2-yl)carbonyl]amino}-1-(2-methoxyacetyl)piperidin-3-yl]-5-methyl-4,5,6,7-tetrahydro-thiazolo[5,4-c]pyridine-2-carboxamide hydrochloride] | 214 to 228 °C (dec.)
7 | COCC(COC)C(=O)N1CC[C@H](NC(=O)c2cc3cc(Cl)ccc3[nH]2)[C@H](NC(=O)c2nc3c(s2)CN(C)CC3)C1 (relative stereo) (as salt: hydrochloride) [Example 152, N-{(3R*,4S*)-4-{[(5-Chloroindol-2-yl)carbonyl]amino}-1-[3-methoxy-2-(methoxymethyl)propanoyl]piperidin-3-yl]-5-methyl-4,5,6,7-tetrahydrothiazolo[5,4-c]pyridine-2-carboxamide hydrochloride] | 178 to 184 °C (dec.)
8 | CN1CCc2nc(C(=O)N[C@@H]3CN(C(=O)c4ccccc4)CC[C@@H]3NC(=O)c3cc4cc(Cl)ccc4[nH]3)sc2C1 (relative stereo) (as salt: hydrochloride) [Example 154, N-((3R*,4S*)-1-benzoyl-4-{[(5-Chloroindol-2-yl)carbonyl]amino}piperidin-3-yl]-5-methyl-4,5,6,7-tetrahydrothiazolo[5,4-c]pyridine-2-carboxamide hydrochloride] | 215 to 225 °C (dec.)
